How the values were obtained:
Type in all cases: in vivo
Corn ECO5133 = assay: Plant growth regulation on corn, greenhouse spray, visual shoot growth reduction; settings: 33 days after application, growth stage 13, vs untreated control
Experimental: (§1) Corn plants of 4 different varieties were grown under greenhouse conditions and sprayed at growth stage 13 (3 leaves unfolded) with a boom sprayer. Trinexapac-ethyl was applied as Moddus® ME250 formulation, and Prohexadion-Ca was applied as Viviful® WG 10 formulation with a standard flat fan nozzle at 200 l/ha spray volume. 33 days after application the plant growth reduction (% GR) of the shoot (leaves and stem) was evaluated visually compared to the untreated control. The expected plant growth reduction was calculated according to Colby (Colby 1967, Weeds 15, 20-22) and compared to evaluation data of sprayed plants.

Corn Ronaldinio = assay: as above; settings: 33 days after application, growth stage 13, vs untreated control
Experimental: as §1

Corn LG22.65 = assay: as above; settings: 33 days after application, growth stage 13, vs untreated control
Experimental: as §1

Corn Maeva = assay: as above; settings: 33 days after application, growth stage 13, vs untreated control
Experimental: as §1

Spring-wheat Lona = assay: Plant growth regulation on cereals, greenhouse spray, visual shoot growth reduction; settings: 13 days after application, growth stage 30-32, vs untreated control
Experimental: as §1, with “Plants” for “Corn plants of 4 different varieties”, “30-32 (start of stem elongation) of cereal plants” for “13 (3 leaves unfolded)”, “Trinexapac-ethyl (treatment A)” for “Trinexapac-ethyl”, “Prohexadione-Ca (treatment B)” for “Prohexadion-Ca”, “WG10” for “WG 10”, “13” for “33”

Winter-barley Hasso = assay: as above; settings: 13 days after application, growth stage 30-32, vs untreated control
Experimental: as §1, with “Plants” for “Corn plants of 4 different varieties”, “30-32 (start of stem elongation) of cereal plants” for “13 (3 leaves unfolded)”, “Trinexapac-ethyl (treatment A)” for “Trinexapac-ethyl”, “Prohexadione-Ca (treatment B)” for “Prohexadion-Ca”, “WG10” for “WG 10”, “13” for “33”

Spring-barley Pasadena = assay: as above; settings: 13 days after application, growth stage 30-32, vs untreated control
Experimental: as §1, with “Plants” for “Corn plants of 4 different varieties”, “30-32 (start of stem elongation) of cereal plants” for “13 (3 leaves unfolded)”, “Trinexapac-ethyl (treatment A)” for “Trinexapac-ethyl”, “Prohexadione-Ca (treatment B)” for “Prohexadion-Ca”, “WG10” for “WG 10”, “13” for “33”

Winter-wheat Arina = assay: as above; settings: 13 days after application, growth stage 30-32, vs untreated control
Experimental: as §1, with “Plants” for “Corn plants of 4 different varieties”, “30-32 (start of stem elongation) of cereal plants” for “13 (3 leaves unfolded)”, “Trinexapac-ethyl (treatment A)” for “Trinexapac-ethyl”, “Prohexadione-Ca (treatment B)” for “Prohexadion-Ca”, “WG10” for “WG 10”, “13” for “33”

SMILES	% GR (plant growth reduction of the shoot) (Corn ECO5133; 25 g a.i./ha)	% GR (plant growth reduction of the shoot) (Corn ECO5133; 50 g a.i./ha)	% GR (plant growth reduction of the shoot) (Corn ECO5133; 100 g a.i./ha)	% GR (plant growth reduction of the shoot) (Corn Ronaldinio; 25 g a.i./ha)	% GR (plant growth reduction of the shoot) (Corn Ronaldinio; 50 g a.i./ha)	% GR (plant growth reduction of the shoot) (Corn Ronaldinio; 100 g a.i./ha)	% GR (plant growth reduction of the shoot) (Corn LG22.65; 25 g a.i./ha)	% GR (plant growth reduction of the shoot) (Corn LG22.65; 50 g a.i./ha)	% GR (plant growth reduction of the shoot) (Corn LG22.65; 100 g a.i./ha)	% GR (plant growth reduction of the shoot) (Corn Maeva; 25 g a.i./ha)	% GR (plant growth reduction of the shoot) (Corn Maeva; 50 g a.i./ha)	% GR (plant growth reduction of the shoot) (Corn Maeva; 100 g a.i./ha)	% GR (plant growth reduction of the shoot) (Spring-wheat Lona; 25 g a.i./ha)	% GR (plant growth reduction of the shoot) (Spring-wheat Lona; 50 g a.i./ha)	% GR (plant growth reduction of the shoot) (Winter-barley Hasso; 25 g a.i./ha)	% GR (plant growth reduction of the shoot) (Winter-barley Hasso; 50 g a.i./ha)	% GR (plant growth reduction of the shoot) (Spring-barley Pasadena; 25 g a.i./ha)	% GR (plant growth reduction of the shoot) (Spring-barley Pasadena; 50 g a.i./ha)	% GR (plant growth reduction of the shoot) (Winter-wheat Arina; 25 g a.i./ha)	% GR (plant growth reduction of the shoot) (Winter-wheat Arina; 50 g a.i./ha)
CCOC(=O)C1CC(=O)C(=C(O)C2CC2)C(=O)C1 (stereo not shown) [A, Trinexapac-ethyl]	1.7%	1.7%	6.7%	0.0%	0.0%	3.3%	0.0%	3.3%	11.7%	1.7%	3.3%	6.7%	1.7%	3.3%	0.0%	5.0%	0.0%	0.0%	0.0%	5.0%
CCC(=O)C1=C([O-])CC(C(=O)[O-])CC1=O.[Ca+2] (stereo not shown) [B, Prohexadione-Ca]	0.0%	0.0%	0.0%	0.0%	0.0%	1.7%	0.0%	1.7%	13.3%	1.7%	5.0%	18.3%	0.0%	3.3%	0.0%	5.0%	0.0%	1.7%	0.0%	3.3%

— patent US8580709B2, “Plant growth regulation” (Syngenta Crop Protection, LLC, priority 2009, dated 2013)
